Series [1] addresses T1, Glycogen phosphorylase, muscle form (Oryctolagus cuniculus) (UniProt P00489).
T1 sequence (whole entry): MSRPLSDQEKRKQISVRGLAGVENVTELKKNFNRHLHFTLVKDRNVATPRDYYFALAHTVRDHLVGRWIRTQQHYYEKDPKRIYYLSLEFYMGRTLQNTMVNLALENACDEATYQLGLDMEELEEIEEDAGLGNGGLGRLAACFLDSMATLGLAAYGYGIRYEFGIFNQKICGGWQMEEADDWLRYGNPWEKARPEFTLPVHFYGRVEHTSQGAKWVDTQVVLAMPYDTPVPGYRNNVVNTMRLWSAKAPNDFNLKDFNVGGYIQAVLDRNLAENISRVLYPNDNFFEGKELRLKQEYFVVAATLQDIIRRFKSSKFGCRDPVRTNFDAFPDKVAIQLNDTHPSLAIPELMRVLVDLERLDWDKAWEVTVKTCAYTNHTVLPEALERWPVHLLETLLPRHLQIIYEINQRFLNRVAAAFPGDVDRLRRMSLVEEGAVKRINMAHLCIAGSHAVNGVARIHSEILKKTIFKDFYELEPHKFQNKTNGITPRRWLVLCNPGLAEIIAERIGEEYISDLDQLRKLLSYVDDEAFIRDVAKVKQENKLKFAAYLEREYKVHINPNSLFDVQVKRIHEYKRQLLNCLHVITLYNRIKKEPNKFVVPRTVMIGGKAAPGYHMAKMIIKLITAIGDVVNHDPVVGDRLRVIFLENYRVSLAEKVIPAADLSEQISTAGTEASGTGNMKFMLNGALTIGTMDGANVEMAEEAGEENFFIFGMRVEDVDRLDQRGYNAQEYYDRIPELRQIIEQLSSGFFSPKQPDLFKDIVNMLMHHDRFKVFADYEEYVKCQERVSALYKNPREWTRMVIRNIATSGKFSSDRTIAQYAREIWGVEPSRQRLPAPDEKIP
Briefly: Inhibition of rabbit skeletal muscle glycogen phosphorylase-B using glucose-1-phosphate substrate assessed as […] in phosphate release at 1000 uM.

Series [2] addresses T1, Glycogen phosphorylase, muscle form (Oryctolagus cuniculus). Nature of the series: Inhibition of rabbit skeletal muscle glycogen phosphorylase-B using glucose-1-phosphate substrate assessed as […] in phosphate release at 250 uM.
Series [3] is described as follows: Solubility of compound in water in presence of 20% DMSO. It is filed as physicochemical. Conditions: buffer.
For series [4], the target named is T1, Glycogen phosphorylase, muscle form (Oryctolagus cuniculus). Nature of the series: Inhibition of rabbit skeletal muscle glycogen phosphorylase-B using glucose-1-phosphate substrate assessed as […] in phosphate release at 300 uM.

Turning to `O=C(NCC(CNC(=O)c1ccccc1)[C@@H]1O[C@H](CO)[C@@H](O)[C@H](O)[C@H]1O)c1ccccc1`, in series [1], the inhibition turned out to be 21%.

Consider `OC[C@H]1O[C@@H](C(c2nc(-c3ccc4ccccc4c3)no2)c2nc(-c3ccc4ccccc4c3)no2)[C@H](O)[C@@H](O)[C@@H]1O`, for which, in series [2], the inhibition is 38%. For the same molecule, in series [3], the solubility entry is “Insoluble”. Take `O=C(NCC(CNC(=O)c1ccc2ccccc2c1)[C@@H]1O[C@H](CO)[C@@H](O)[C@H](O)[C@H]1O)c1ccc2ccccc2c1`: the inhibition in series [4] turned out to be 44%. As for `Cc1ccc(-c2noc(C(c3nc(-c4ccc(C)cc4)no3)[C@@H]3O[C@H](CO)[C@@H](O)[C@H](O)[C@H]3O)n2)cc1`, the inhibition in series [1] amounted to 39%.

As to `O=C1NCC([C@@H]2O[C@H](CO)[C@@H](O)[C@H](O)[C@H]2O)CN1`, the inhibition in series [1] was 8.5%.

What is called inhibition is the percentage by which the read-out fell short of the control.

The values above are taken from ChEMBL document CHEMBL2086374, “C-Glucosylated malonitrile as a key intermediate towards carbohydrate-based glycogen phosphorylase inhibitors” (Bioorg Med Chem, 2012).
